Measurements: US8877949B2, “Furo[3,2-g]chromene compounds and uses thereof” (Shenyang Pharmaceutical University, priority 2010, dated 2014)

Assays:
uteri = assay: 6 weeks spayed rats, protection of bone and heart: uterine weight; assay type: in vivo, rat; conditions: spayed female Sprague-Dawley CD rats, 6 weeks treatment; n = 2
Protocol: One day after a Taconic Farm surgery, spayed or pseudo-spayed female Sprague-Dawley CD rats (weighted 240-275 g) were obtained. These animals were fed with food and sufficient water, 3 or 4 rats/cage, in a 12/12 (light/dark) cycle. After one day, all items of investigative treatments were started to these animals. The animals were administered 7 days/week following the instruction, continuously for 6 weeks. In each investigation, one group of rats that were not treated, comparably aged, and subjected to pseudo-surgeries was used as an untreated and estrogen-sufficient control group.
All treatments were conducted with specified concentrations in physiological saline solution containing 1% Tween 80, so that the amount of the treatment was 0.1 mL/100 g body weight. Then 176 estradiol was dissolved in corn oil (20 μg/mL), and administered subcutaneously to rats, 0.1 mL/rat. The result was measured according to the average body weight of each group, and the animals were dosed once […].
Five weeks after the beginning of the treatment and one week before the end of the treatment, the bone mineral density (BMD) of each rat was evaluated. The total densities and trabecular densities of the proximal ends of tibias in the anaesthetized rats were evaluated using XCT-960M (pQCT; Stratec Medizintechik, Pforzheim, Germany). The measuring procedure is shown as follows: 15 minutes before scanning, each rat was anaesthetized by intraperitoneal injection of 45 mg/kg ketamine, 8.5 mg/kg xylazine, and 1.5 mg/kg acepromazine.
The right hindlimb was drawn over the polycarbonate test tube with a diameter of 25 mm, and tied up on the acrylic acid scaffold, so that the anklebone was situated as a right angle and the knee joint was kept horizontally. The polycarbonate test tube was fixed on the sliding platform, so as to be orthogonal with the aperture of pQCTR. The platform was adjusted, so that the distal end of femur and the proximal end of tibia were within the scanning zone. The plane scan image was set as an image with a length of 10 mm and a linear resolution of 0.2 mm.
Soft tissues were eliminated automatically using iterative algorithm. The density (total density) of the remaining bone was shown in a unit of mg/cm^3. In a concentric spiral separator, 55% of the external surface of the bone was peeled off. The density (i.e. trabecular density) of the remaining bone was shown in a unit of mg/cm^3. One week after BMD evaluation, the rats were sacrificed by CO2 asphyxiation. Blood was collected so as to measure cholesterol. Uteri were extracted and weighted. Total cholesterol was measured by Boehringer-Mannheim Hitachi 911 clinic analyzer utilizing a cholesterol/HP kit. A statistical comparison was carried out by way of one-way ANOVA of Dunnet's test.

[1] = system: DU-145 prostate cancer cells; assay: Effect on the proliferation of prostate cancer cells; assay type: cell-based; conditions: Homo sapiens, DU-145, 120 h; 5 days, Cyquant kit; n = 2
Protocol: DU-145 prostate cancer cells were plated onto a 96-well dish, in a density of 2×10^3 cells/well in a MEM Eagles medium without phenol red. Such a medium comprises Earles' balanced salt, 1% antibiotic-antifungal agent, 2 mM glutamine, 0.1 mM nonessential amino acids, 1 mM sodium pyruvate and 10% carbon stripped FCS. The next day, the compound and vehicle (0.2% DMSO) were added, and the medium was refreshed every 48 hours. The cultivation was stopped 5 days later. Proliferation was analyzed using the above Cyquant kit.

[2] = system: Ovarian Cancer Cells SKOV3; assay: Effect on the proliferation of ovarian cancer cells SKOV3 (MTT); assay type: cell-based; conditions: Homo sapiens, SK-OV-3, n = 3
Protocol: Cells in the logarithmic growth phase were digested with trypsin, added to a 96-well plate, in a density of 6×10^3 cells/well, and cultured in a 37° C., 5% CO2 incubator. The next day, the plated was transferred to and kept in a 4° C. incubator for 1 h after the adherence of most cells, so as to achieve synchronized growth of the cells. The supernatant was sucked out, and a RPMI 1640 medium containing 10% fetal calf serum (FCS) was added, 200 μL/well. The cells were grouped according to the design of the experiment. The injectable solution of the compound prepared with sterile physiological saline was added to the 96 wells, 200 μL/well, so that the concentrate of the medicament in each well were 1 mg/mL, 2 mg/mL and 5 mg/mL, respectively. A concentration of 0 mg/mL was used as a negative control group. After subsequent cultivation for 24, 48, or 72 h, 20 μL MTT solution (with a concentration of 5 mg/mL) was added to each well, respectively. The plate was shaken gently, returned to the incubator and incubated for another 4 h. Then the supernatant was sucked out completely, and 200 μL of dimethyl sulfoxide was added to each well. The plate was shaken for 5-10 min on a shaker. The absorption (A=580) of each well at a wavelength of 580 nm was measured using a microplate reader. The A=580 value was proportional to the number of live cells.

[3] = system: Osteosarcoma Cells U2OS-EGFP-4A12G; assay: Effect on the proliferation of osteosarcoma cells U2OS-EGFP-4A12G (MTT); assay type: cell-based; conditions: n = 3
Protocol: Cells in the logarithmic growth phase were digested with trypsin, counted with trypan blue, and prepared into a cellular suspension with a density of 1×10^4 cells/mL. The suspension was seeded in a 96-well plate, 200 μL/well, about 2×10^3 cells/well, and pre-cultured for 24 h. […] A concentration of 0 mg/mL was used as a negative control group. After subsequent cultivatation for 0 h, 12 h, 24 h or 48 h, 20 μL MTT solution (5 mg/mL) was added to each well. The cultivation was terminated after another 4 h incubation. The supernatant in each well was sucked out carefully, and 150 μL of dimethyl sulfoxide (DMSO) was added to each well. The plate was shaken for 10 min, so that formazan was dissolved thoroughly. The absorption value (A value) of each well was measured using an enzyme linked immunosorbent detector, at a selected wavelength of 490 nm. The measurement was repeated for 5 times.

SMILES	percentage of weight gain of uteri (uteri) [%]	IC50 [1] [µM]	IC50 [2] [µM]	IC50 [3] [µM]
O=C(c1ccc(OCC(=O)N2CCOCC2)cc1)c1oc2cc3c(cc2c1-c1ccc(O)cc1)CCCO3 [2-[4-(morpholine-2-oxo-ethoxy)benzoyl]-3-(4-hydroxyphenyl)-6,7-dihydrogen-5H-furo[3,2-g]chromene]	6.2	23.7	–	–
CCN(CC)CCOc1ccc(C(=O)c2oc3cc4c(cc3c2-c2ccc(O)cc2)CCCO4)cc1 [Example 56, 2-[4-(diethylaminoethoxy)benzoyl]-3-(4-hydroxyphenyl)-6,7-dihydrogen-5H-furo[3,2-g]chromene]	15.1	17.1	17.9	14.9
CN(C)CCOc1ccc(C(=O)c2oc3cc4c(cc3c2-c2ccc(O)cc2)CCCO4)cc1 [Example 58, 2-[4-(dimethylaminoethoxy)benzoyl]-3-(4-hydroxyphenyl)-6,7-dihydrogen-5H-furo[3,2-g]chromene]	3.2	43.6	–	–
O=C(c1ccc(OCC(=O)N2CCCCC2)cc1)c1oc2cc3c(cc2c1-c1ccc(O)cc1)CCCO3 [Example 60, 2-[4-(piperidine-2-oxo-ethoxy)benzoyl]-3-(4-hydroxyphenyl)-6,7-dihydrogen-5H-furo[3,2-g]chromene]	12.4	14.5	–	–
CCN(CC)C(=O)COc1ccc(C(=O)c2oc3cc4c(cc3c2-c2ccc(O)cc2)CCCO4)cc1 [Example 62, 2-[4-(diethylamino-2-oxo-ethoxy)benzoyl]-3-(4-hydroxyphenyl)-6,7-dihydrogen-5H-furo[3,2-g]chromene]	23.9	35.2	–	–
CN(C)C(=O)COc1ccc(C(=O)c2oc3cc4c(cc3c2-c2ccc(O)cc2)CCCO4)cc1 [Example 64, 2-[4-(dimethylamino-2-oxo-ethoxy)benzoyl]-3-(4-hydroxyphenyl)-6,7-dihydrogen-5H-furo[3,2-g]chromene]	35.5	8.5	–	–
